Where “and” joins values, the source holds several entries; their conditions need not be identical. Identical values can stand only once.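 96-well plates; 48 h exposure; 5 concentrations. Endpoints by linear interpolation between flanking doses. Not reached: highest tested concentration assigned. GI50 is the concentration that inhibits growth by half. TGI denotes the concentration required for complete inhibition of growth.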
How the values were obtained:
Experiment in all cases: DTP human tumour cell line panel, 48 h
SK-OV-3 ovarian = tested on: SK-OV-3 ovarian
SK-MEL-2 melanoma = tested on: SK-MEL-2 melanoma
EKVX NSCLC = tested on: EKVX NSCLC
SF-539 CNS = tested on: SF-539 CNS
NCI-H226 lung = tested on: NCI-H226 lung
HT29 colon = tested on: HT29 colon
HCT-116 colon = tested on: HCT-116 colon
M14 melanoma = tested on: M14 melanoma
NCI-H460 lung = tested on: NCI-H460 lung
SR leukemia = tested on: SR leukemia

Structure (SMILES) | GI50 (SK-OV-3 ovarian) | TGI (SK-OV-3 ovarian) | GI50 (SK-MEL-2 melanoma) | TGI (SK-MEL-2 melanoma) | GI50 (EKVX NSCLC) | TGI (EKVX NSCLC) | GI50 (SF-539 CNS) | TGI (SF-539 CNS) | GI50 (NCI-H226 lung) | TGI (NCI-H226 lung) | GI50 (HT29 colon) | TGI (HT29 colon) | GI50 (HCT-116 colon) | TGI (HCT-116 colon) | GI50 (M14 melanoma) | TGI (M14 melanoma) | GI50 (NCI-H460 lung) | TGI (NCI-H460 lung) | TGI (SR leukemia) | GI50 (SR leukemia)
CC(=O)[CH-]C(=O)c1ccccc1.CC(=O)[CH-]C(=O)c1ccccc1.Cl.[O-]CCc1ccccn1.[O-]CCc1ccccn1.[Ti+4] | 39.5 µM | > 100 µM | 19.2 µM | 38.9 µM | 28.9 µM | 78.2 µM | 29.8 µM | 88 µM | 18.7 µM | 78.3 µM | 22.4 µM | 77.1 µM | 18.9 µM | 55.6 µM | 22 µM | 70.5 µM |  |  |  | 
O=C(NCCN1CCOCC1)c1cc2c(Oc3ccc(NC(=O)C4(C(=O)Nc5ccc(F)cc5)CC4)cc3)ccnc2[nH]1 | 15.1 µM | > 100 µM | 9.19 µM | 22.9 µM | 10.3 µM | > 100 µM | 1.39 µM | 16.5 µM | 3.73 µM | 50.3 µM | 3 µM | 18.7 µM | 8.78 µM | > 100 µM | 4.14 µM | > 52.8 µM | 4.36 µM | > 100 µM |  | 
COc1cc2c(c3oc4c(O)cccc4c(=O)c13)CC(C(C)(O)CCl)O2 (stereo not drawn) |  | 17.9 µM |  | 3.38 µM |  | 21.9 µM |  | 2.2 µM |  | 24.2 µM |  | 15.9 µM |  | 2.53 µM |  | 1.27 µM |  | 13.2 µM |  | 
O=C1N(c2ccc(Cl)cc2)C(=O)C2(SC=NN2Cc2ccccc2)N1c1ccc(Cl)cc1 (stereo not drawn) |  | > 100 µM |  |  |  | > 100 µM |  | > 100 µM |  | > 100 µM |  | > 100 µM |  | > 100 µM |  | > 100 µM |  | > 100 µM | > 100 µM | 
COc1cccc(/C=C\C(=O)c2ccccc2)c1 | 15.9 µM | 32.2 µM | 18 µM | 34.8 µM |  |  | 10.7 µM | 24.1 µM | 16.6 µM | 32.9 µM | 3.65 µM | 17.5 µM | 2.66 µM | 8.27 µM | 11.7 µM | 28.8 µM | 4.02 µM | 22.3 µM | > 100 µM | 8.89 µM
CC1OC(O[C@@H]2C=C3CC[C@@H]4[C@H](CC[C@]5(C)[C@@H](c6ccc(=O)oc6)CC[C@]45O)[C@@]3(C)CC2)C(O)C(O)C1O (stereo partly drawn) |  |  |  | 0.0243 µM |  | 0.003 µM and 0.00108 µM |  | 0.000193 µM |  |  |  |  |  | 0.0017 µM | 8.85e-05 µM | 0.0124 µM |  | 0.003 µM and 0.00049 µM | 0.00115 µM | 
COC1=CC(=O)C2(C=C1OC)OC[C@H]1Oc3c(ccc4c3C=CC(C)(C)O4)C(=O)[C@H]12 (stereo partly drawn) |  | > 100 µM |  | > 100 µM |  | > 100 µM |  | > 100 µM |  |  |  | > 100 µM |  | > 100 µM |  | > 100 µM |  | > 100 µM |  | 
COc1cc(O)c(C(=O)C2Cc3ccccc32)c(OC)c1 (stereo not drawn) |  | > 100 µM |  | 95 µM |  |  |  | > 100 µM |  | 86 µM |  | > 100 µM |  | > 100 µM |  | > 100 µM |  | > 100 µM |  | 
COC(=O)CC(=O)OC1C[C@@H]2CCC3C(C)(C)CCC[C@]3(C)C23CC[C@@]1(C)C3 (stereo partly drawn) |  | 52.4 µM |  |  |  |  |  | 39.1 µM |  | 46.7 µM |  | 35.1 µM |  | 31.4 µM |  | 33.7 µM |  | 37.5 µM | > 100 µM | 
ClC/C=C/CSc1ncnc2nc[nH]c12 | > 100 µM | > 100 µM |  |  | > 100 µM | > 100 µM | > 100 µM | > 100 µM | > 100 µM | > 100 µM | > 100 µM | > 100 µM | > 100 µM | > 100 µM | > 100 µM | > 100 µM | > 100 µM | > 100 µM | > 100 µM | > 100 µM
O=[N+]([O-])c1ccc(N=P(c2ccccc2)(c2ccccc2)c2ccccc2)n2nnnc12 |  | 95.8 µM |  | > 100 µM |  | > 100 µM |  | 50.9 µM |  |  |  | > 100 µM |  |  |  | > 100 µM |  | > 100 µM |  | 
O=C1c2c(c3c4ccccc4n(CC4CO4)c3c3[nH]c4ccccc4c23)C(=O)N1Cc1ccccc1 (stereo not drawn) |  | > 100 µM |  | > 100 µM |  |  |  | > 100 µM |  | > 100 µM |  | > 100 µM |  | > 100 µM |  | > 100 µM |  | > 100 µM | > 100 µM | 
CCn1c(=O)nc2n(-c3ccc(SC)cc3)c3ccccc3nc-2c1=O |  | > 100 µM |  | > 100 µM |  | > 100 µM |  | > 100 µM |  | > 100 µM |  |  |  |  |  | > 100 µM |  | > 100 µM |  | 
CO[C@H]1C[C@H](O[C@H]2CC[C@@]3(C)[C@H](CC[C@@H]4[C@@H]3CC[C@]3(C)[C@@H](C5=CC(=O)OC5)CC[C@]43O)C2)O[C@H](C)[C@H]1O |  | 0.0291 µM |  | 0.0478 µM |  | 0.0148 µM |  | 0.0138 µM |  | 0.0586 µM |  | 0.0552 µM |  | 0.0161 µM |  | 0.0607 µM |  | 0.0103 µM |  | 
CC1=C(\C=C/C(C)=C/C=C/C(C)=C/C=C/C=C(C)\C=C\C=C(C)/C=C/C2=C(C)CCCC2(C)C)C(C)(C)CCC1 |  | > 100 µM |  | > 100 µM |  |  |  |  |  | > 100 µM |  | > 100 µM |  | 71.9 µM |  | > 100 µM |  | > 100 µM |  | 
CCOC(=O)C1=C(C)N(NC(=O)Nc2ccccc2)C2(N)N(NC(=O)Nc3ccccc3)C(C)=C(C(=O)OCC)C12C#N (stereo not drawn) |  | 52.1 µM |  | 30.2 µM |  |  |  |  |  | 36.1 µM |  | 38.1 µM |  | 31.2 µM |  | 34.6 µM |  | 33.1 µM |  | 
O=C1c2ccc3c4c(ccc(c24)C(=O)N1CCCCO)C(=O)N(CCCCO)C3=O | 4.14 µM | 17.8 µM | 1.84 µM | 6.88 µM |  |  | 1.45 µM | 3.87 µM | 3.45 µM | 15.5 µM | 0.824 µM | 14.3 µM | 1.22 µM | 6.16 µM |  |  | 1.12 µM | 4.75 µM | 21.5 µM | 0.745 µM
COc1ccccc1NC(=O)c1sc2ncn(CCOc3ccccc3)c(=O)c2c1C | > 50 µM | > 50 µM | 3.37 µM | > 50 µM | 5.08 µM | > 50 µM | 2.77 µM | 12.2 µM |  |  |  |  | 1.99 µM | > 50 µM | 3.54 µM | > 50 µM | 2.55 µM | > 50 µM | 6.87 µM | 0.856 µM

Source: PubChem BioAssay (NCI)
